# Reference: PubChem BioAssay (NCI)
#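 How tested: cells in 96-well plates exposed to compound for 48 hours at five concentrations. At the GI50, growth is halved. The concentration for full growth arrest is given as TGI.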
# Legend:
# Assay in all cases: NCI tumour cell line growth inhibition, 48 h
# HL-60(TB) leukemia = system: HL-60(TB) leukemia
# 786-0 renal = system: 786-0 renal
# OVCAR-4 ovarian = system: OVCAR-4 ovarian
# U251 CNS = system: U251 CNS
# EKVX NSCLC = system: EKVX NSCLC
# SN12C renal = system: SN12C renal
# HCC-2998 colon = system: HCC-2998 colon
# UACC-62 melanoma = system: UACC-62 melanoma
# SK-OV-3 ovarian = system: SK-OV-3 ovarian
# PC-3 prostate = system: PC-3 prostate
compound,measurement,setting,value
COC(CN1C(=O)c2cccc3cccc(c23)C1=O)OC,TGI,HL-60(TB) leukemia,> 100 µM
same,TGI,786-0 renal,> 100 µM
same,TGI,OVCAR-4 ovarian,> 100 µM
same,TGI,U251 CNS,> 100 µM
same,TGI,EKVX NSCLC,> 100 µM
same,TGI,SN12C renal,> 100 µM
same,TGI,HCC-2998 colon,> 100 µM
same,TGI,UACC-62 melanoma,> 100 µM
same,TGI,SK-OV-3 ovarian,> 100 µM
N#CCCN(CCC#N)c1ccc(/C=C2\N=C(c3cc([N+](=O)[O-])ccc3Cl)OC2=O)cc1,TGI,HL-60(TB) leukemia,67.3 µM
same,TGI,786-0 renal,> 100 µM
same,TGI,OVCAR-4 ovarian,78.6 µM
same,TGI,U251 CNS,32.1 µM
same,TGI,EKVX NSCLC,> 100 µM
same,TGI,SN12C renal,37.8 µM
same,TGI,HCC-2998 colon,52.6 µM
same,TGI,UACC-62 melanoma,> 100 µM
same,TGI,SK-OV-3 ovarian,> 100 µM
O=C1C2C(C(=O)N1OS(=O)(=O)c1ccccc1)N(Cc1ccccc1)C(=O)N2Cc1ccccc1 (stereo not given),TGI,HL-60(TB) leukemia,> 100 µM
same,TGI,786-0 renal,> 100 µM
same,TGI,OVCAR-4 ovarian,> 100 µM
same,TGI,U251 CNS,> 100 µM
same,TGI,EKVX NSCLC,> 100 µM
same,TGI,SN12C renal,> 100 µM
same,TGI,HCC-2998 colon,> 100 µM
same,TGI,UACC-62 melanoma,> 100 µM
same,TGI,SK-OV-3 ovarian,> 100 µM
CC1(C)CCc2c(c3c(c4c(=O)c(O)c(-c5ccc(O)cc5)oc24)OC(C)(C)CC3)O1,GI50,786-0 renal,37.7 µM
same,TGI,786-0 renal,> 100 µM
same,GI50,OVCAR-4 ovarian,> 100 µM
same,TGI,OVCAR-4 ovarian,> 100 µM
same,GI50,U251 CNS,24.7 µM
same,TGI,U251 CNS,65.5 µM
same,GI50,EKVX NSCLC,34.5 µM
same,TGI,EKVX NSCLC,> 100 µM
same,GI50,SN12C renal,82.9 µM
same,TGI,SN12C renal,> 100 µM
same,GI50,PC-3 prostate,> 100 µM
same,TGI,PC-3 prostate,> 100 µM
same,GI50,HCC-2998 colon,> 100 µM
same,TGI,HCC-2998 colon,> 100 µM
same,GI50,UACC-62 melanoma,> 100 µM
same,TGI,UACC-62 melanoma,> 100 µM
same,GI50,SK-OV-3 ovarian,23.2 µM
same,TGI,SK-OV-3 ovarian,53.4 µM
CN(C)CC[N+]1=Nc2cccc3cccc(c23)N1,TGI,HL-60(TB) leukemia,> 60.1 µM
same,TGI,786-0 renal,> 100 µM
same,TGI,OVCAR-4 ovarian,> 100 µM
same,TGI,U251 CNS,> 100 µM
same,TGI,EKVX NSCLC,> 100 µM
same,TGI,SN12C renal,> 100 µM
same,TGI,HCC-2998 colon,> 100 µM
same,TGI,UACC-62 melanoma,> 100 µM
same,TGI,SK-OV-3 ovarian,> 100 µM
CN1C(=O)C(C)(C)C2(SC(C)(C)C2(C)C)N(C)C1=S (stereo not given),TGI,HL-60(TB) leukemia,> 100 µM
same,TGI,786-0 renal,> 100 µM
same,TGI,OVCAR-4 ovarian,> 100 µM
same,TGI,U251 CNS,> 100 µM
same,TGI,EKVX NSCLC,> 100 µM
same,TGI,SN12C renal,> 100 µM
same,TGI,HCC-2998 colon,> 100 µM
same,TGI,UACC-62 melanoma,> 100 µM
same,TGI,SK-OV-3 ovarian,> 100 µM
CCCCCCCCCCCCCCCCCC(CCCCCCCCCCCCCCCCC)OP(=O)(O)O,TGI,HL-60(TB) leukemia,> 100 µM
same,TGI,786-0 renal,> 100 µM
same,TGI,OVCAR-4 ovarian,> 100 µM
same,TGI,U251 CNS,> 100 µM
same,TGI,EKVX NSCLC,> 100 µM
same,TGI,SN12C renal,> 100 µM
same,TGI,HCC-2998 colon,> 100 µM
same,TGI,UACC-62 melanoma,> 100 µM
same,TGI,SK-OV-3 ovarian,> 100 µM
Cc1cc(C)nc(NS(=O)(=O)c2ccc(NC(=O)c3ccc(Cl)c4c(Nc5ccc(S(=O)(=O)Nc6nc(C)cc(C)n6)cc5)c5ccccc5nc34)cc2)n1,TGI,HL-60(TB) leukemia,11 µM
same,TGI,786-0 renal,20.4 µM
same,TGI,OVCAR-4 ovarian,48.1 µM
same,TGI,U251 CNS,21.9 µM
same,TGI,EKVX NSCLC,88.8 µM
same,TGI,SN12C renal,> 100 µM
same,TGI,SK-OV-3 ovarian,76.5 µM
Cn1cc(C2=C(c3cn(C)c4ncccc34)C(=O)NC2=O)c2ccccc21,GI50,HL-60(TB) leukemia,7.85 µM
same,TGI,HL-60(TB) leukemia,20.1 µM
same,GI50,786-0 renal,8.72 µM
same,TGI,786-0 renal,> 25 µM
same,GI50,OVCAR-4 ovarian,17.8 µM
same,TGI,OVCAR-4 ovarian,> 25 µM
same,GI50,U251 CNS,7.27 µM
same,TGI,U251 CNS,> 25 µM
same,GI50,SN12C renal,6.9 µM
same,TGI,SN12C renal,> 25 µM
same,GI50,PC-3 prostate,8.27 µM
same,TGI,PC-3 prostate,> 25 µM
same,GI50,HCC-2998 colon,> 21.2 µM
same,TGI,HCC-2998 colon,> 25 µM
same,GI50,UACC-62 melanoma,11.7 µM
same,TGI,UACC-62 melanoma,> 25 µM
same,GI50,SK-OV-3 ovarian,6.97 µM
same,TGI,SK-OV-3 ovarian,21.7 µM
O=C(COc1ccc(Br)cc1Br)N1N=C(c2ccc([N+](=O)[O-])o2)CC1(O)c1ccccc1 (stereo not given),TGI,HL-60(TB) leukemia,17.1 µM
same,TGI,786-0 renal,44.1 µM
same,TGI,OVCAR-4 ovarian,> 100 µM
same,TGI,U251 CNS,22.9 µM
same,TGI,EKVX NSCLC,9.59 µM
same,TGI,SN12C renal,25.7 µM
same,TGI,HCC-2998 colon,23.1 µM
same,TGI,UACC-62 melanoma,18.7 µM
same,TGI,SK-OV-3 ovarian,> 100 µM
COc1ccccc1C12OC(=O)C1(C)Oc1ccccc1C2=O (stereo not given),TGI,HL-60(TB) leukemia,> 100 µM
same,TGI,786-0 renal,> 100 µM
same,TGI,OVCAR-4 ovarian,> 100 µM
same,TGI,U251 CNS,> 100 µM
same,TGI,EKVX NSCLC,> 100 µM
same,TGI,SN12C renal,> 100 µM
same,TGI,HCC-2998 colon,> 100 µM
same,TGI,UACC-62 melanoma,> 100 µM
same,TGI,SK-OV-3 ovarian,> 100 µM
CCOC(=O)CN1C(=O)c2cccc3cc([N+](=O)[O-])cc(c23)C1=O,TGI,HL-60(TB) leukemia,2.32 µM
same,TGI,786-0 renal,26.3 µM
same,TGI,OVCAR-4 ovarian,3.27 µM
same,TGI,U251 CNS,20.3 µM
same,TGI,EKVX NSCLC,28.6 µM
same,TGI,SN12C renal,17.2 µM
same,TGI,HCC-2998 colon,14.8 µM
same,TGI,UACC-62 melanoma,5.2 µM
same,TGI,SK-OV-3 ovarian,41 µM
C/C(CC(=O)CCC(=O)Nc1cccc(C(F)(F)F)c1)=N\NC(=O)NN,TGI,HL-60(TB) leukemia,> 100 µM
same,TGI,786-0 renal,> 100 µM
same,TGI,OVCAR-4 ovarian,> 100 µM
same,TGI,U251 CNS,> 100 µM
same,TGI,EKVX NSCLC,> 100 µM
same,TGI,SN12C renal,> 100 µM
same,TGI,HCC-2998 colon,> 100 µM
same,TGI,UACC-62 melanoma,> 100 µM
same,TGI,SK-OV-3 ovarian,> 100 µM
Brc1ccc(N=c2nc3ccccn3n3nc(-c4ccccc4)cc23)cc1,TGI,HL-60(TB) leukemia,> 100 µM
same,TGI,786-0 renal,65.2 µM
same,TGI,OVCAR-4 ovarian,20.7 µM
same,TGI,U251 CNS,> 100 µM
same,TGI,EKVX NSCLC,> 100 µM
same,TGI,SN12C renal,> 100 µM
same,TGI,UACC-62 melanoma,63.3 µM
same,TGI,SK-OV-3 ovarian,> 100 µM
COC1CCC2C(NS(=O)(=O)c3ccc(C)cc3)CCCC2O1 (stereo not given) (tested in a mixture with another compound),TGI,HL-60(TB) leukemia,18.5 µM
same,TGI,786-0 renal,> 34.5 µM
same,TGI,OVCAR-4 ovarian,> 34.5 µM
same,TGI,U251 CNS,> 34.5 µM
same,TGI,EKVX NSCLC,> 34.5 µM
same,TGI,SN12C renal,> 34.5 µM
same,TGI,HCC-2998 colon,> 34.5 µM
same,TGI,UACC-62 melanoma,> 34.5 µM
same,TGI,SK-OV-3 ovarian,> 34.5 µM
CCN(CCO)CC1CCCC2CCCCC21 (stereo not given),TGI,786-0 renal,> 100 µM
same,TGI,OVCAR-4 ovarian,> 100 µM
same,TGI,U251 CNS,> 100 µM
same,TGI,EKVX NSCLC,> 100 µM
same,TGI,SN12C renal,> 100 µM
same,TGI,PC-3 prostate,> 100 µM
same,TGI,HCC-2998 colon,> 100 µM
same,TGI,UACC-62 melanoma,> 100 µM
same,TGI,SK-OV-3 ovarian,> 100 µM
CC(C)=CC(=O)C1c2cccc(O)c2C(=O)c2c(O)cc(C)cc21 (stereo not given),TGI,HL-60(TB) leukemia,9.15 µM
same,TGI,786-0 renal,16.1 µM
same,TGI,OVCAR-4 ovarian,4.52 µM
same,TGI,U251 CNS,3.82 µM
same,TGI,EKVX NSCLC,31.5 µM
same,TGI,SN12C renal,25.4 µM
same,TGI,HCC-2998 colon,5.67 µM
same,TGI,SK-OV-3 ovarian,8.48 µM
N#CC1C(C#N)C2(c3ccccc3)C(c3ccccc3)=NN(c3ccccc3)CC12 (stereo not given),TGI,HL-60(TB) leukemia,> 100 µM
same,TGI,786-0 renal,> 100 µM
same,TGI,OVCAR-4 ovarian,> 100 µM
same,TGI,U251 CNS,> 100 µM
same,TGI,EKVX NSCLC,> 100 µM
same,TGI,SN12C renal,> 100 µM
same,TGI,HCC-2998 colon,> 100 µM
same,TGI,UACC-62 melanoma,> 100 µM
CN(C)C(=N)c1ccccc1,TGI,HL-60(TB) leukemia,> 100 µM
same,TGI,786-0 renal,> 100 µM
same,TGI,OVCAR-4 ovarian,> 100 µM
same,TGI,U251 CNS,> 100 µM
same,TGI,SN12C renal,> 100 µM
same,TGI,HCC-2998 colon,> 100 µM
CC(C)C/C(CC(=O)CCC(=O)Nc1ccccc1[N+](=O)[O-])=N\NC(=O)c1cc2ccccc2cc1O,TGI,HL-60(TB) leukemia,88.7 µM
same,TGI,786-0 renal,> 100 µM
same,TGI,U251 CNS,> 100 µM
same,TGI,EKVX NSCLC,> 100 µM
same,TGI,SN12C renal,> 100 µM
same,TGI,HCC-2998 colon,> 100 µM
same,TGI,UACC-62 melanoma,80.5 µM
same,TGI,SK-OV-3 ovarian,> 100 µM
COC1(OC)CCC2C1C1CCC(OC)(OC)C21 (stereo not given),TGI,HL-60(TB) leukemia,> 50 µM
same,TGI,786-0 renal,> 50 µM
same,TGI,OVCAR-4 ovarian,> 50 µM
same,TGI,U251 CNS,> 50 µM
same,TGI,EKVX NSCLC,> 50 µM
same,TGI,SN12C renal,> 50 µM
same,TGI,HCC-2998 colon,> 50 µM
same,TGI,UACC-62 melanoma,> 50 µM
same,TGI,SK-OV-3 ovarian,> 50 µM
CC1=C(C(=O)NCc2ccccc2)C(/C=C/c2ccccc2)C(C(=O)NCc2ccccc2)=C(C)N1,TGI,HL-60(TB) leukemia,> 100 µM
same,TGI,786-0 renal,> 100 µM
same,TGI,OVCAR-4 ovarian,> 100 µM
same,TGI,EKVX NSCLC,> 100 µM
same,TGI,SN12C renal,> 100 µM
same,TGI,HCC-2998 colon,> 100 µM
same,TGI,UACC-62 melanoma,> 100 µM
